# Measured values taken from article PMC7822874, “Chemoprotective antimalarials identified through quantitative high-throughput screening of Plasmodium blood and liver stage parasites” (Scientific Reports, 2021).
# Like-named read-outs stand apart in the source and are kept apart here.
# Test system: Plasmodium falciparum Dd2 asexual blood stage parasites
# Assay: microbe, parasite or virus in culture
# Design: species or system Plasmodium falciparum Dd2 in human erythrocytes; single determination (one 11-point concentration-response curve)
# Details: Plasmodium falciparum, DD2, Erythrocyte, 72 h
SMILES,AC50 (read-out: AC50) [µM],AC50 [µM]
O=S(=O)(c1ccc(F)cc1)N1CCN(/C(S)=N/CCc2ccccc2)CC1 [MLS001035761-01],5.96,–
CC(C)(C)c1ccc(C(=O)N2CCCC(c3nc(O)c4nnn(Cc5cccc(F)c5)c4n3)C2)cc1 (stereo not drawn) [NCGC00116087-01],16.8,–
CC1(c2ccccc2)N(Cc2cccnc2)C(=O)OC12CCN(C(=O)Cc1ccc(Cl)cc1)CC2 (stereo not drawn) [NCGC00415462-01],13.3,–
COc1cc(Br)c(C(C)NC(=O)c2cccc(Br)c2)cc1OC (stereo not drawn) [MLS000325399-01],2.11,–
COc1ccc(C2=C(Nc3ccccc3)c3ccccc3C2=O)cc1 [MLS000572234-01],9.44,–
Cn1c(SCC(=O)N2c3ccccc3CCc3ccccc32)nnc1-c1cc2ccccc2cc1O [MLS000553503-01],8.41,–
CCOC(=O)c1cccc(NC(=O)CCn2c(-c3ccc(F)cc3)cc(C(=O)OCC)c2C)c1 [NCGC00140860-01],0.075,–
O=C(Nc1cc(Cl)ccc1O)c1cc2nc(-c3ccc4c(c3)OCO4)cc(C(F)(F)F)n2n1 [NCGC00164969-01],2.66,–
COc1ccccc1-c1nnc2n1C(C(=O)NCCc1ccc(Cl)cc1)CC2 (stereo not drawn) [NCGC00375512-01],3.35,–
COc1ccc(CC(=O)N2Cc3ccccc3CC3(CCCN3C)C2)cc1 (stereo not drawn) [NCGC00377108-01],9.44,–
COc1ccc2[nH]cc(CCNC(=O)C3(Cc4ccccc4)CCCCC(=O)N3)c2c1 (stereo not drawn) [NCGC00456177-01],5.96,–
CN(C)c1cccc(Nc2cc3c(cn2)CN(Cc2ccccc2)CCN3)c1 [NCGC00411230-01],13.7,–
CCOC(=O)c1c(NC(=O)CSc2nc3ccccc3c(=O)n2-c2ccccc2)sc(C(C)=O)c1C [MLS000335169-01],13.3,–
Cc1nn2c3c(cnc2c1-c1ccccc1)C(=O)CC(c1ccco1)C3 (stereo not drawn) [MLS000080714-01],9.44,–
CN1CCN(Cc2ccccc2Oc2ccc(C(F)(F)F)cn2)CC1 [NCGC00433787-01],0.531,–
COCCNC(=O)c1ccc(OC2CCN(C/C=C/c3ccc(F)cc3)CC2)c(Cl)c1 [NCGC00426935-01],10.6,–
C[S+](=O)([O-])c1cccc(-c2cnc3[nH]cc(CC(=O)NCc4cccnc4)c3c2)c1 [NCGC00412364-01],9.68,–
COC1=CC(=O)C(=C(C)N/N=C(\S)NCCc2ccccc2)C=C1 [MLS001170945-01],3.35,–
CCc1cccc(-n2c(=O)c3cccnc3n2CC(=O)Nc2ccc(F)c(C)c2)c1 [NCGC00128424-01],2.66,–
CC(=O)Nc1cccc(OCc2nnc(C(=O)N3CCC[C@@H]3C(c3ccccc3)c3ccccc3)n2-c2ccccc2)c1 [NCGC00415783-01],10.6,–
O=[S+]([O-])(c1cccnc1)N1CCC2(CC1)NCCc1c2[nH]c2ccccc12 [NCGC00460719-01],16.8,–
O=C(CCC1CCN(Cc2cccc3c2OCO3)CC1)NCc1cccc(C(F)(F)F)c1 [NCGC00426823-01],3.76,–
CCOC(=O)c1cc(C)n(Cc2ccc(OCC)c(OC)c2)c1C [MLS000521227-01],10.6,–
Cc1ccccc1N(C)C1CN(Cc2ccccc2)C1 [NCGC00476681-01],19.3,–

SMILES,AC50 (read-out: AC50) [µM],AC50 [µM]
Cc1ccc(-n2c(C3CCN(C(=O)COc4ccc(Cl)cc4)CC3)n[nH]c2=O)cc1 [NCGC00451295-01],10.6,–
O=C(C[C@@H]1CCNC[C@@H]1Cc1cc(CSc2ccccc2)on1)N1CCN(c2ccccc2)CC1 [NCGC00400854-01],8.41,–
CC(C)(Oc1nn(CC2CC2)c2ccc(CN3CCCC3)cc12)C(N)=O [NCGC00419502-01],13.7,–
Clc1ccc2c(N3CCCC3)ccnc2c1 [MLS000049600-01],3.76,–
COc1ccc(CN2CCC(CO)(CCCc3ccccc3)CC2)c(Cl)c1OC [NCGC00426399-01],8.41,–
CC(C)(C)c1c[nH]c([C@@H]2COCCN2Cc2ccccc2O)n1 [NCGC00395090-01],13.7,–
c1cc(-c2noc([C@@H]3Cc4[nH]cnc4CN3CC3CCCCC3)n2)ccn1 [NCGC00394653-01],21.7,–
Oc1cc2c(cc1CN1CCN(c3ccccc3)CC1)CCC2 [MLS000058156-01],–,3.35
COc1cccc(CN2C(=O)OC3(CCN(Cc4c[nH]c5ccccc45)CC3)C2(C)c2cccnc2)c1 (stereo not drawn) [NCGC00415482-01],8.41,–
CCC1(N2CCN(C)CC2)CCN([S+](=O)([O-])c2ccccc2)C1 (stereo not drawn) [NCGC00472095-01],6.68,–
NC(=O)c1cccc2nc([C@H]3CCN(Cc4ccccn4)C3)[nH]c12 [NCGC00396190-01],1.53,–
Cc1nnc(NC(=O)C2c3ccccc3C(=O)N(CC(C)C)C23CCCCC3)s1 (stereo not drawn) [NCGC00423223-01],15,–
Cc1c(CN2CCN(CC(C)(C)C)C(CCO)C2)[nH]c2ccccc12 (stereo not drawn) [MLS001000590-01],9.44,–
CC(C)[C@@H]1CN([S+](=O)([O-])c2ccc(Cl)cc2Cl)C[C@H]1N(C)C [NCGC00445159-01],6.68,–
COCc1ccc2c(c1)c(OC(C)(C)C(=O)N1CCN(CCO)CC1)nn2Cc1ccccc1 [NCGC00419658-01],9.44,–
CCN1CCN(C(=O)c2ccc(-c3nnc4ccc(NC(=O)C5CC5)cn34)cc2)CC1 [NCGC00429842-01],6.68,–
Cc1cc(OC2CN([S+](=O)([O-])c3cccs3)C2)ccc1F [NCGC00476695-01],15.3,–
O=C(NCc1ccc(N2CCCC2)cc1)C1CCCN(c2cnn(Cc3ccccc3)c(=O)c2)C1 (stereo not drawn) [NCGC00470327-01],10.6,–
Cc1c(Cl)cccc1Nc1nn2c(=O)c3ccc(C(=O)NCCc4ccccc4)cc3nc2s1 [NCGC00125565-01],7.5,–
CCn1c(=O)c(=O)n(CC)c2cc(N3CCCCC3)c(NC(=O)c3ccc(Cl)cc3)cc21 [NCGC00107440-01],7.5,–
COc1cccc(CN2C(=O)OC3(CCN(Cc4ccccc4OC)CC3)C2(C)c2cccnc2)c1 (stereo not drawn) [NCGC00415564-01],4.73,–
COc1ccc2c(c1)C=C([C@@H]1C[C@H]3CN(c4ccccc4)C(=O)[C@]34CCCN14)CO2 [MLS000734809-01],0.944,–
COc1ccc(-c2ccc3ncc(Nc4cccc(C(F)(F)F)c4)n3n2)cn1 [NCGC00412495-01],12.2,–
c1ccc(-c2ccc3ncc(Nc4cccnc4)n3n2)cc1 [NCGC00412518-01],4.85,–

SMILES,AC50 (read-out: AC50) [µM],AC50 [µM]
CCCC(O)(c1ccc(Cl)cc1)C(CN1CCOCC1)c1ccc(Cl)cc1 (stereo not drawn) [MLS001200366-01],4.73,–
COc1cncc(Nc2cnc3ccc(-c4ccc(F)cc4)nn23)c1 [NCGC00412595-01],3.06,–
c1ccc(Nc2cc3c(cn2)CN(Cc2ccsc2)CCN3)cc1 [NCGC00411091-01],13.7,–
CCOC(=O)c1c(N)sc2c1CCN(Cc1ccccc1)C2 [NCGC00159451-02],5.31,–
Cc1ccc(C2Cn3nnc(-c4noc(-c5n[nH]c6c5CCCC6)n4)c3CO2)cc1 (stereo not drawn) [NCGC00454353-01],13.3,–
CCN(C(=O)CSc1nc(-c2ccc(C(C)C)cc2)no1)c1cccc(C)c1 [NCGC00127902-01],1.06,–
O[C@@H]1C[C@@](CNCc2cccc(Cl)c2)(COc2ccccc2)C[C@@H]1O [NCGC00392187-01],3.85,–
CCc1ccc(CN2CCN(Cc3cc(Br)ccc3O)CC2)cc1 [MLS000673664-01],2.11,–
CC(C)(C)OC(=O)N1CCC(c2c(C(=O)NCCN3CCc4ccccc4C3)cnn2-c2ccc(F)cc2F)CC1 [NCGC00127087-01],5.31,–
CCOC(=O)c1sc(NC(=O)C2c3ccccc3Oc3ccccc32)c(C(=O)OCC)c1C [NCGC00100913-01],2.66,–
O=C(NCc1ccco1)c1cc(-c2ccncc2)nc2ccccc12 [MLS000046192-01],5.96,–
COc1ccc(NC(=O)c2sc3nc4c(c(-c5ccc(OC)cc5)c3c2N)C(=O)CC(C)(C)C4)cc1 [NCGC00100714-01],1.88,–
COc1ccc(-n2nc(C(=O)NCC(=O)N3CCN(c4ccccc4OC)CC3)c3ccccc3c2=O)cc1OC [MLS000936245-01],6.68,–
O=C(CC1C(=O)N(Cc2ccccc2)C(=S)N1CCN1CCOCC1)Nc1ccc(F)cc1 (stereo not drawn) [MLS000672078-01],5.31,–
CCOC(=O)c1cc(C)n(CC2CCC(C(=O)Nc3cccc(Cl)c3)CC2)c1C (stereo not drawn) [NCGC00141645-01],8.41,–
Oc1cc(Nc2ccccc2)cc2cccnc12 [NCGC00183789-01],6.68,–
Cc1ccc(C)c(-n2c(-c3ccc(Br)cc3)csc2=NC(=O)c2ccccc2F)c1 [MLS000766129-01],4.73,–
Cn1cccc1CN1CCCC2(C1)C(NC1CCCCC1)=NC(=O)N2c1cccnc1 (stereo not drawn) [NCGC00374042-01],5.31,–
CC(C)C[C@@]12C(=O)N(c3cccc(Br)c3)C(=O)N1[C@H](c1ccc(F)cc1)[C@@H]1C(=O)N(C3CCCCC3)C(=O)[C@@H]12 [MLS001074979-01],7.5,–
CCCc1nnc(C[C@@H]2C[C@@H](C(C)C)[C@H](CN3CCC[C@H]3CO)C=C2C)o1 [NCGC00392769-01],17.2,–
CCOc1ccc(CN2C(=O)c3ccccc3Sc3ccc(C(=O)N4CCN(C)CC4)cc32)cc1 [NCGC00108216-01],0.299,–
Cn1nc(C(F)(F)F)c(-c2ccc(F)cc2)c1NC(=O)Nc1ccc(F)cc1 [MLS000830769-01],1.88,–
COc1cc(C)ccc1OCCSc1nc2ccc(NC(=O)c3ccc(F)cc3)cc2s1 [NCGC00118562-01],10.6,–
COCC1CN(Cc2cccc(OC(F)(F)F)c2)CC12CCNCC2 (stereo not drawn) [NCGC00461844-01],15,–
